# Assay results from PMC9170106, “Pre-clinical evaluation of LASSBio-1491: From in vitro pharmacokinetic study to in vivo leishmanicidal activity” (PLoS ONE, 2022).
# Columns and labels:
# spleen cells = assay: Cytotoxicity against spleen cells (propidium iodide); details: Mus musculus, 24 h
# Method: To carry out the suspension preparation of spleen cells, BALB/c mice were euthanized, and an incision was made to remove the spleen. The spleens were macerated using the end of the plungers from a 1 mL syringe in a 70 μm strainer placed in a Petri dish containing RPMI medium. […] After incubation for 4 min at room temperature, the cells were washed with RPMI medium. Subsequently, samples from three animals were pooled and the cell suspension was passed through a 40 μm strainer. Cells were counted in a Neubauer chamber and splenocytes were plated at a concentration of 5 x 10^5 cells per well in a 96-well culture plate. […] Moreover, spleen cells were also cultured just with medium (free of compounds or vehicle) or with DMSO 0.1%. […] After, the propidium iodide incorporation was performed according to the instructions of the Propidium Iodide Kit (Sigma, Copenhagen, Denmark). The splenocytes were analyzed in a FACS Canto II flow cytometer. The data files were saved using FACS Diva software and data analysis was done using Flow Jo software. […] Data obtained from experiments were expressed as the mean ± standard error of the mean (S.E.M.) of spleen died cells and statistical differences between the treated and the vehicle groups of experiments were evaluated by ANOVA and Dunnett hoc tests.
# [1] = tested on: L. major promastigote 5-ASKH substrain; assay: In vitro activity against promastigotes, 5-ASKH; type: cell-based, Leishmania major
# Method: (§1) L. major promastigotes LV39 (MRHO/SU/59/P) were obtained from João […] Preto Medical School- USP. L. major IOC/[…] promastigotes (MHOM/SU/1973/5-ASKH) were obtained from Leishmania collection of the Oswaldo Cruz Institute-Fiocruz. L. major promastigotes LV39 (MRHO/SU/59/P) and L. major IOC/[…] (MHOM/SU/1973/5-ASKH) were grown in a Schneider's medium (Sigma-Aldrich, St. […] The determination of the leishmanicidal activity of LASSBio-1491 against L. major promastigotes was carried out according to the methodology described by […] and colleagues (1996). […] After 48h of incubation in a Biochemical Oxygen Demand (B.O.D.) incubator, the promastigotes were counted using a hemocytometer. The results obtained were expressed as the mean ± S.E.M. of the number of promastigotes from triplicate cultures of representative assays, with the data analyzed by ANOVA and Dunnett hoc tests, considering a significance level of p < 0.05.
# PAMPA-GIT permeability = assay: PAMPA-GIT permeability
# Description: The parallel artificial membrane permeability assay uses 96-well plate in a “sandwich” type system, where one plate overlaps the other (PAMPA). […] The lipid mixture that impregnates the PVDF filter has a different constitution for the permeability tests for the blood-brain barrier (Brain lipid from pig extract in dodecane) and gastro-intestinal tract (L-α soy phosphatidylcholine in dodecane). In the PAMPA BBB and TGI assays, the optical density values obtained in the reading at each selected wavelength, for each of the compounds were analyzed in comparison with the values of several controls. In the case of the BBB, these values were used to elaborate an equation and determine the permeability coefficient (Pe), using a previously elaborated spreadsheet, and, for the TGI, these values were used to determine the absorbed fraction (Fa%), both using the Excel® program.
# L. major LV39 = assay: In vivo activity against Leishmania major LV39 substrain; design: species or system BALB/c mice
# Method: Thus, 6-week-old female BALB/c mice weighing approximately 20 g were used. […] Briefly, ketamine (80mg/kg) and xylazine (8 mg/kg) were simultaneously used to anesthetize the mice by intraperitoneal injection. The promastigotes of L. major LV39 substrain in the stationary phase, harvested after the third passage (obtained from parasites frozen), were inoculated subcutaneously at a concentration of 1x 10^5 parasites in the right ear of mice. […] The size of the lesions was measured using a pachymeter. Thiopental (150 mg/kg, i.p.) was used to euthanize the mice and the quantitative limiting-dilution assay was used to determine the parasite burden of infected ears and draining lymph nodes. The results obtained from experiments were expressed as the mean ± S.E.M. with the data analyzed (size of the lesions or parasite burden) by ANOVA and Dunnett hoc tests, considering a significance level of p < 0.05.
# [2] = tested on: L. major promastigote LV39 substrain; assay: In vitro activity against promastigotes, LV39; type: cell-based; details: Leishmania major
# Method: as §1
# Microsomal metabolism = type: in vitro ADME; details: rat liver microsomes, without NADPH regenerating system
# [3] = tested on: L. major amastigote LV39 substrain; assay: In vitro activity against intramacrophage amastigotes, LV39; type: cell-based; details: Leishmania major
# Method: Briefly, female BALB/c mice (6 to 8 weeks old) received 1 mL sterile of 3% sodium thioglycolate by intraperitoneal route (i.p.) and were euthanized after 4 days. The intraperitoneal lavage was collected from the peritoneal cavity of mice using sterile PBS and cells were counted in a hemocytometer. Peritoneal adherent cells (macrophages) were plated at a concentration of 2 x 10^5 cells per well in 24-well culture plates containing glass coverslips. Subsequently, L. major promastigotes (harvested after the third passage) were added at a concentration of 2 x 10^6 parasites per well, aiming to infect the macrophages. […] After 24 hours in an incubator at 37 °C and 5% CO2, the coverslips were washed with PBS and stained with Giemsa-May Grünwald. The number of amastigotes in 100 macrophages was determined by counting using optical microscope (100x objective). Furthermore, the cell culture supernatant was also collected for nitrite measurement using the Griess reaction, an indirect way of determining the concentration of nitric oxide in the supernatant of infected macrophages from the experimental groups. The results obtained were expressed as the mean ± S.E.M. of the number of amastigotes or nitrite concentration from duplicate cultures of representative assays, with the data analyzed by ANOVA and Dunnett hoc tests, considering a significance level of p < 0.05. In addition, the linear regression analysis from the Kc values at employed concentrations was used to determine the IC50.
# [4] = LASSBio-1491 10 μmol/Kg/day, glucantime 30 μmol/Kg/day x 28 days, i.p.
compound,measurement,setting,value
O=C(N/N=C/c1ccc([N+](=O)[O-])o1)NNC(=O)c1ccc(Cl)cc1 [LASSBio-1491],IC50,spleen cells,> 100 µM
same,times less potent than pentamidine,[1],about 10 times
same,IC50,"[1]; Leishmania major, 48 h",7.5 ± 0.3 µM
same,Emax,"[1]; Leishmania major, read-out: Maximum effect (% ± S.E.M.)",68.4 ± 0.1%
same,Classification,PAMPA-GIT permeability; GIT-PAMPA,High (high intestinal permeability (70–100%))
same,Fa experimental,"PAMPA-GIT permeability; GIT-PAMPA, absorbed fraction",78.8%
same,Papp,PAMPA-GIT permeability; PAMPA,4.08 ×10⁻⁶ cm/s
same,lesion size,L. major LV39; [4],reduced lesion size only between days 7 and 17
same,parasite load in draining lymph node,L. major LV39; [4],decreased parasite load
same,parasite load in infected ear,L. major LV39; [4],decreased parasite load
same,times more efficient than glucantime,L. major LV39; similar effect at a dose three times lower,3 times
same,IC50,"[2]; promastigote LV39, 48 h",7.7 ± 0.1 µM
same,Emax,"[2]; promastigote LV39, read-out: Maximum effect (% ± S.E.M.)",68.3 ± 0.2%
same,Metabolism rate non co-factor,Microsomal metabolism,10.87%
same,IC50,"[3]; Macrophage, amastigote LV39 in macrophages, 24 h",8.3 ± 0.3 µM
same,Emax,"[3]; amastigote LV39, read-out: Maximum effect (% ± S.E.M.)",60.2 ± 1.9%
